Where two headings read alike, the source gives them in different places. A value given as a limit tells only on which side of the number the result lay.

Data on 12 compounds can be found in patent publication US12331044B2, “Inhibitors of histone deacetylase useful for the treatment or prevention of HIV infection” (Merck Sharp & Dohme LLC, priority 2018, dated 2025).

In assay [1] the target is T1, human HDAC1 (Homo sapiens (Human), UniProt Q13547). Nature of the assay: biochemical.
Assay [2] addresses T2, human HDAC3/SMRT heterodimer (Homo sapiens (Human), UniProt O15379). Nature of the assay: biochemical.
The test system of assay [3] is KARN cells (Jurkat 2C4). The conditions noted are these: luciferase induction, 2 μM SAHA = 100%.
Assay [4] has as its target T3, HDAC6 (Homo sapiens (Human), UniProt Q9UBN7). Briefly: biochemical.
Method: (§1) The histone deacetylase activities of HDAC1, HDAC2, HDAC3, HDAC6, and HDAC8 were measured in modified FLUOR DE LYS assays in 384-well format. In this assay, HDAC enzymes are initially incubated with an F-acetyl (or -trifluoroacetyl)-L-lysine-containing substrate with a C-terminal amide having aminomethylcoumarin as the amine component. HDACs cleave the F-acetyl group, rendering the resulting product susceptible to AMC cleavage by trypsin. The released AMC is then detected by its fluorescence. […] All steps were performed at room temperature (23° C.). The assay was performed by pre-incubating serial dilutions of test compounds with the target HDAC prior to initiation with substrate. […] Final conditions used for each assay were: 1. […] The reactions were stopped and developed by addition of 30 ul of HDAC developer solution containing a saturating level of HDAC inhibitor as follows: 1. […] For data analysis, background subtracted product (fluorescence) vs. time data for each inhibitor concentration was fitted using a 4-parameter fit.
Another assay deals with human HDAC2 (Homo sapiens (Human), UniProt Q92769). Briefly: HDAC2 inhibition assay (modified FLUOR DE LYS, 384-well). The conditions noted are these: 40 μM substrate BML-KI104, 3 h pre-incubation, read-out: HDAC2 IC50. Type of assay: biochemical.
A further assay deals with human HDAC8 (Homo sapiens (Human), UniProt Q9BY41). Briefly: HDAC8 inhibition assay (modified FLUOR DE LYS, 384-well). Type of assay: biochemical. The conditions noted are these: 200 μM substrate BML-KI178, 3 h pre-incubation, read-out: HDAC8 IC50.
In assay [5] the target is T3, HDAC6.
Method: as §1
Assay [6] concerns the target T1, human HDAC1.
Assay [7] has as its target T2, human HDAC3/SMRT heterodimer.
The test system of assay [8] is KARN cells (Jurkat 2C4). Nature of the assay: cells. The note with it: Homo sapiens.
Setting [9] is: read-out: Karn EC50 nM 0.1% NHS, 0.1% normal human serum.
[10] abbreviates: read-out: Karn EC50 nM 5% NHS, 5% normal human serum.
Setting [11] is: read-out: Karn EC50 nM 0.1% NHS, 0.1% normal human serum, luciferase induction, 2 μM SAHA = 100%.
Where [12] appears, read: read-out: Karn EC50 nM 5% NHS, 5% normal human serum, luciferase induction, 2 μM SAHA = 100%.

T3 sequence (Q9UBN7 whole entry): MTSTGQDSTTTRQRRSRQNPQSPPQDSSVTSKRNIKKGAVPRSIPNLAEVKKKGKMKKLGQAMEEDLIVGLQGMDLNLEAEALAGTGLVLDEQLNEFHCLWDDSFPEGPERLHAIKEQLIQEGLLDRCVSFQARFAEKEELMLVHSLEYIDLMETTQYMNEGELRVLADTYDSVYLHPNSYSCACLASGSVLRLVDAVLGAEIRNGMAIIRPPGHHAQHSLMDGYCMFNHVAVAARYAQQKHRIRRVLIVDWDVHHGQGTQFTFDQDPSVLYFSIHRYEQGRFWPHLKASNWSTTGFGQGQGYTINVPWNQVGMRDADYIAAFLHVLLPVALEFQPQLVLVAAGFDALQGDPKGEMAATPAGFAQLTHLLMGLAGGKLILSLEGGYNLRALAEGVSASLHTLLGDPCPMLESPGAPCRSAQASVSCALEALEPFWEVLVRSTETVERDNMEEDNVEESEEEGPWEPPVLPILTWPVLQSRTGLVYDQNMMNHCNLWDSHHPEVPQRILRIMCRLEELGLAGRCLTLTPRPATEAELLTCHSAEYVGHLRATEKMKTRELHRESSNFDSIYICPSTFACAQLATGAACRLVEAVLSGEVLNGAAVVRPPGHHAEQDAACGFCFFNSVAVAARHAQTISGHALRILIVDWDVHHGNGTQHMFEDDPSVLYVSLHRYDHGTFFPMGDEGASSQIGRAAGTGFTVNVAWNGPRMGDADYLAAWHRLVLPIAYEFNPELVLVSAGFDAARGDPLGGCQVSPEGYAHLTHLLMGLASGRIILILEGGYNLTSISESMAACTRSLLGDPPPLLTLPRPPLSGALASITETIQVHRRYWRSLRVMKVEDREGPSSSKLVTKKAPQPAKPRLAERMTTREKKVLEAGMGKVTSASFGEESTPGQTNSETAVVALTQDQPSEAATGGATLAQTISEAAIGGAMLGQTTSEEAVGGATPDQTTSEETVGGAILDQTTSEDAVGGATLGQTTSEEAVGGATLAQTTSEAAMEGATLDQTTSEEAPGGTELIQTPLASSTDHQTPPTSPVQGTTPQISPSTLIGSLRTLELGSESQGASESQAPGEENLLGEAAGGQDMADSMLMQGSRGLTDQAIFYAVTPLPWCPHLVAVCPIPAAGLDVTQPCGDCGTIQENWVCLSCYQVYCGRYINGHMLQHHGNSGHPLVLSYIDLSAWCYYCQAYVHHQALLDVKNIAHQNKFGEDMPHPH
human HDAC8, sequence (Q9BY41 whole entry): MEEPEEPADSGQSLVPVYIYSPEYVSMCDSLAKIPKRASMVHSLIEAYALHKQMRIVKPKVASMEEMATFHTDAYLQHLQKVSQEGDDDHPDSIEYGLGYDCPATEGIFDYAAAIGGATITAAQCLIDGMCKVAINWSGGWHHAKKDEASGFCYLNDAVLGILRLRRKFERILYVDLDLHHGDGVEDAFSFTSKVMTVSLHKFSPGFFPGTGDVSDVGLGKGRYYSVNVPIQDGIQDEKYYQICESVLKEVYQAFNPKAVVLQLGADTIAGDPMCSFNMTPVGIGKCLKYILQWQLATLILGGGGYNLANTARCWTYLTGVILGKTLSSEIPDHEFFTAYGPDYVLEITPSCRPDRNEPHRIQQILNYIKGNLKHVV
human HDAC2, sequence (Q92769 whole entry): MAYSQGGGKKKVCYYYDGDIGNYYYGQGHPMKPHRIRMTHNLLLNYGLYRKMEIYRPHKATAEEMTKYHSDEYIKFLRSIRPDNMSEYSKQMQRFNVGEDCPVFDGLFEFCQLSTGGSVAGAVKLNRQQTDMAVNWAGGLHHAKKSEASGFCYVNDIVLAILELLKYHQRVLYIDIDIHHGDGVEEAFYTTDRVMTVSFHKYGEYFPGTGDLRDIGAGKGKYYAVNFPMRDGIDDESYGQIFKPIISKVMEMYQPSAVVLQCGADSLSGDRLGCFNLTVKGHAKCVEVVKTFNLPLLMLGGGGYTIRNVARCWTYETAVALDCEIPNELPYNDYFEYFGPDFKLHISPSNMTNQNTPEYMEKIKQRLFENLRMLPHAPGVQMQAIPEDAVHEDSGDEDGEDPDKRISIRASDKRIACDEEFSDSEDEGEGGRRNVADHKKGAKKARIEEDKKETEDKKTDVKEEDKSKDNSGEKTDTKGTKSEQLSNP
T1 sequence (Q13547 whole entry): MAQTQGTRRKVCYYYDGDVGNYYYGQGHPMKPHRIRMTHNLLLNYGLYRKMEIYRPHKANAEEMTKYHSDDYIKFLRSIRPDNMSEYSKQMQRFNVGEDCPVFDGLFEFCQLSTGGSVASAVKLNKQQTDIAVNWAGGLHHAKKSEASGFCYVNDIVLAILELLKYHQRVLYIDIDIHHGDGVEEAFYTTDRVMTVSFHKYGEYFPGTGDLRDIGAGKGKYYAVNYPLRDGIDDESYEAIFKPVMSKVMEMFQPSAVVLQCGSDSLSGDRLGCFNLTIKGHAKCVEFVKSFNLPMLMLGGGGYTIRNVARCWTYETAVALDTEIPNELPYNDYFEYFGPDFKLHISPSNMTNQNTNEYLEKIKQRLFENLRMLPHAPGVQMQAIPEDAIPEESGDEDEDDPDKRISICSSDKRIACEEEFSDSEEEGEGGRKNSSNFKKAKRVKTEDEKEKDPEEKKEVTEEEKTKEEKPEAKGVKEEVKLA
T2 sequence (O15379 whole entry): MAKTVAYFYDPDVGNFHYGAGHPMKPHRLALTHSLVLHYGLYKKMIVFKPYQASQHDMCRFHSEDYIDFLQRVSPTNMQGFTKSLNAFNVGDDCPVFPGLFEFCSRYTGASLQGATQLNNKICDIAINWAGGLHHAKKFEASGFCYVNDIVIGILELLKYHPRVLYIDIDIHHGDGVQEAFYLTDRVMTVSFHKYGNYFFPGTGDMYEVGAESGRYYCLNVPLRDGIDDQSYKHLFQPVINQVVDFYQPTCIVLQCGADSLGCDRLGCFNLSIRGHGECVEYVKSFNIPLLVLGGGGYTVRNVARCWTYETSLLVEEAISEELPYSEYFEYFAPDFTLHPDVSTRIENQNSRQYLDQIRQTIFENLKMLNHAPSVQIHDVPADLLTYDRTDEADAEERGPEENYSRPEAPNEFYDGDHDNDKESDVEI
T2 sequence (Q9Y618 1-899 partner): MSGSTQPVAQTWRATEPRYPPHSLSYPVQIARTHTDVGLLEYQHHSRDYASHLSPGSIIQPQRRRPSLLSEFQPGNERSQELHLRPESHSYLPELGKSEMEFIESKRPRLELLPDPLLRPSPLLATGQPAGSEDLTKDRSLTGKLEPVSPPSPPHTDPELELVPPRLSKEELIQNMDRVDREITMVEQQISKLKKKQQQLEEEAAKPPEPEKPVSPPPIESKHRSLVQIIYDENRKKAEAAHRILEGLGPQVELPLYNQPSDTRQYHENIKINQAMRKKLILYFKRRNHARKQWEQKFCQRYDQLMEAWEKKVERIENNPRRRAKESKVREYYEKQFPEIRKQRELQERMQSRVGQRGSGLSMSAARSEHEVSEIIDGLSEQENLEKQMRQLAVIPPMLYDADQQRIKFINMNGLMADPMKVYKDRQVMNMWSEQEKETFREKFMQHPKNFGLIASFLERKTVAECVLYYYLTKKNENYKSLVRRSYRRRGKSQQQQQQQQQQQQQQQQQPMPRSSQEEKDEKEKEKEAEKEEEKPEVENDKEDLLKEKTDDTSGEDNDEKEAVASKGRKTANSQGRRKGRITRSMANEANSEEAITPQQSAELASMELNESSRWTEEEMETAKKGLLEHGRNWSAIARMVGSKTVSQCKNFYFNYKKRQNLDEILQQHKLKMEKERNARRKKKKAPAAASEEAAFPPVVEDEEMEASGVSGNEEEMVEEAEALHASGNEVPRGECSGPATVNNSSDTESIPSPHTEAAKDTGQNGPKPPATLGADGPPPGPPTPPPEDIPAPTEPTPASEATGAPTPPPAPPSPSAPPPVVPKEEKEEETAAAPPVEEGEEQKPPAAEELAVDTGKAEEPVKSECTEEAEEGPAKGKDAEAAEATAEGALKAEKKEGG
Method for human HDAC8: as §1

For orientation: IC50 means the point on the concentration scale where inhibition reaches its midpoint. What is called EC50 is the concentration at which the effect is half-maximal. As to `Cc1ccc2cc(-c3cnc([C@H](CCCCCC(=O)c4ncco4)NC(=O)[C@H]4CC45CCN(C)CC5)o3)ccc2n1` [Example 109, (S)-6-methyl-N-((S)-1-(5-(2-methylquinolin-6-yl)oxazol-2-yl)-7-(oxazol-2-yl)-7-oxoheptyl)-6-azaspiro[2.5]octane-1-carboxamide], the concentration for half-maximal inhibition (IC50) on human HDAC1 [1] worked out at 7.5 nM; in assay [2], 7.5 nM; against HDAC6 [4], 23000 nM; on human HDAC2 ([…] nM enzyme) it was 39 nM; on human HDAC8 ([…] nM enzyme), 5000 nM. The values for the EC50 with KARN cells (Jurkat 2C4) [3] (setting [9]) and with KARN cells (Jurkat 2C4) [3] (setting [10]) were 1700 nM and 2500 nM, respectively.

Take `Cc1ccc2cc(-c3cnc(C(CCCCCC(=O)c4ncco4)NC(=O)[C@H]4CC45CCN(C)CC5)o3)ccc2n1` (stereo partly drawn) [Example 111, (1S)-6-methyl-N-(1-(5-(2-methylquinolin-6-yl)oxazol-2-yl)-7-(oxazol-2-yl)-7-oxoheptyl)-6-azaspiro[2.5]octane-1-carboxamide]: the figures for the half-maximal effective concentration (EC50) in the assay with KARN cells (Jurkat 2C4) [3] (setting [9]) and in the assay on KARN cells (Jurkat 2C4) [3] (setting [10]) were 70 nM and 48 nM, respectively. Further, the half-inhibitory concentration (IC50) at HDAC6 [5] turned out to be 430 nM; on human HDAC2 ([…] enzyme), 5.2 nM; on human HDAC1 [6], 0.76 nM; at human HDAC8 ([…] enzyme), 520 nM; in assay [7], 1.4 nM.

`COc1cc2nc(C)ccc2cc1-c1cnc([C@H](CCCCCC(=O)c2ncco2)NC(=O)C2CCC3(CC2)CN(C)C3)[nH]1` [Example 117, (S)-N-(1-(5-(7-methoxy-2-methylquinolin-6-yl)-1H-imidazol-2-yl)-7-(oxazol-2-yl)-7-oxoheptyl)-2-methyl-2-azaspiro[3.5]nonane-7-carboxamide]: the IC50 at human HDAC1 [1] came to 0.82 nM; in assay [2], 1.4 nM; at HDAC6 [4], 680 nM; at human HDAC2 ([…] nM enzyme) it was 5.8 nM; at human HDAC8 ([…] nM enzyme), 21 nM. The EC50 with KARN cells (Jurkat 2C4) [8] (setting [11]) and in the assay with KARN cells (Jurkat 2C4) [8] (setting [12]) was 320 nM in each case.

As to `COc1cc(-c2cnc([C@@H](N)CCCCCC(=O)c3ncco3)[nH]2)c(F)cn1` [Example 129, (S)-7-amino-7-(5-(5-fluoro-2-methoxypyridin-4-yl)-1H-imidazol-2-yl)-1-(oxazol-2-yl)heptan-1-one], the IC50 was 16 nM against human HDAC1 [1]; 16 nM in [2]; at least 45000 nM at HDAC6 [4]; 100 nM at human HDAC2 ([…] nM enzyme); 2300 nM on human HDAC8 ([…] nM enzyme). The EC50 in the assay on KARN cells (Jurkat 2C4) [8] (setting [11]) came out at 1600 nM; in the assay on KARN cells (Jurkat 2C4) [8] (setting [12]) it was 2900 nM.

Turning to `CCN1CCC2(CC1)C[C@@H]2C(=O)N[C@@H](CCCCCC(=O)c1ccon1)c1cc(-c2cc3ccc(C)nc3cc2OC)on1` [Example 145, (S)-6-ethyl-N-((S)-7-(isoxazol-3-yl)-1-(5-(7-methoxy-2-methylquinolin-6-yl)isoxazol-3-yl)-7-oxoheptyl)-6-azaspiro[2.5]octane-1-carboxamide], the half-inhibitory concentration (IC50) against human HDAC1 [1] is 3.4 nM; in assay [2], 4.2 nM; on HDAC6 [4] it was above 900 nM; on human HDAC2 ([…] nM enzyme) it was 14 nM; on human HDAC8 ([…] nM enzyme), 5.1 nM. The concentration for a half-maximal effect (EC50) was determined as 49 nM in the assay on KARN cells (Jurkat 2C4) [8] (setting [11]) and 66 nM in the assay with KARN cells (Jurkat 2C4) [8] (setting [12]).

For the compound `COc1cc2nc(C)ccc2cc1-c1cnc([C@H](CCCCCC(=O)c2ncco2)NC(=O)C2COCCO2)[nH]1` (stereo partly drawn) [Example 174, N-[(1S)-1-[5-(7-methoxy-2-methylquinolin-6-yl)-1H-imidazol-2-yl]-7-(1,3-oxazol-2-yl)-7-oxoheptyl]-1,4-dioxane-2-carboxamide], the half-maximal effective concentration (EC50) came to 37 nM with KARN cells (Jurkat 2C4) [3] (setting [9]) and 80 nM with KARN cells (Jurkat 2C4) [3] (setting [10]). Moreover, the IC50 on HDAC6 [5] was above 900 nM; at human HDAC2 ([…] enzyme) it was 3.7 nM; at human HDAC1 [6], 1.4 nM; on human HDAC8 ([…] enzyme), 110 nM; in [7] it was 0.54 nM.

With `N#Cc1nc(-c2ccc(F)cc2)[nH]c1[C@@H](N)CCCCCC(=O)c1ncco1` [Example 185, (S)-5-(1-amino-7-(oxazol-2-yl)-7-oxoheptyl)-2-(4-fluorophenyl)-1H-imidazole-4-carbonitrile], the IC50 against human HDAC1 [1] was 2.9 nM; in assay [2] it was 3.9 nM; against HDAC6 [4] it was at least 45000 nM; at human HDAC2 ([…] nM enzyme), 15 nM; on human HDAC8 ([…] nM enzyme), 6700 nM. Further, the EC50 came to 250 nM in the assay on KARN cells (Jurkat 2C4) [8] (setting [11]) and 690 nM in the assay on KARN cells (Jurkat 2C4) [8] (setting [12]).

Turning to `CN(C)CC(=O)N[C@@H](CCCCCC(=O)c1ncco1)c1[nH]c(-c2ccc(F)cc2)nc1C#N` [Example 186, (S)-N-(1-(4-cyano-2-(4-fluorophenyl)-1H-imidazol-5-yl)-7-(oxazol-2-yl)-7-oxoheptyl)-2-(dimethylamino)acetamide], the IC50 against human HDAC1 [1] is 0.28 nM; in [2], 0.39 nM; on HDAC6 [4] it was at least 45000 nM; on human HDAC2 ([…] nM enzyme), 1.7 nM; at human HDAC8 ([…] nM enzyme), 220 nM. In addition, the EC50 was found to be 12 nM in the assay with KARN cells (Jurkat 2C4) [8] (setting [11]) and 21 nM in the assay with KARN cells (Jurkat 2C4) [8] (setting [12]).

`N#Cc1nc(-c2ccc(F)cc2)oc1[C@@H](N)CCCCCC(=O)c1ncco1` [Example 189, (S)-5-(1-amino-7-(oxazol-2-yl)-7-oxoheptyl)-2-(4-fluorophenyl)oxazole-4-carbonitrile]: the IC50 was 26 nM against human HDAC1 [1]; 45 nM in assay [2]; at least 45000 nM against HDAC6 [4]; 250 nM at human HDAC2 ([…] nM enzyme); 25000 nM at human HDAC8 ([…] nM enzyme). Besides, the figures for the EC50 in the assay on KARN cells (Jurkat 2C4) [8] (setting [11]) and with KARN cells (Jurkat 2C4) [8] (setting [12]) were 3000 nM and 7400 nM, respectively.

`CN(C)CC(=O)N[C@@H](CCCCCC(=O)c1ncco1)c1oc(-c2ccc(F)cc2)nc1C#N` [Example 190]: the IC50 against human HDAC1 [1] was 4.6 nM; in assay [2] it was 3.2 nM; against HDAC6 [4] it was at least 45000 nM; at human HDAC2 ([…] nM enzyme) it was 21 nM; at human HDAC8 ([…] nM enzyme) it was 3200 nM. Also, the figures for the 50% effective concentration (EC50) in the assay on KARN cells (Jurkat 2C4) [8] (setting [11]) and in the assay with KARN cells (Jurkat 2C4) [8] (setting [12]) were 240 nM and 260 nM, respectively.

Turning to `N[C@@H](CCCCCC(=O)c1ccon1)c1nc(Cl)c(-c2ccc(F)cc2)[nH]1` [Example 193, (S)-7-amino-7-(4-chloro-5-(4-fluorophenyl)-1H-imidazol-2-yl)-1-(isoxazol-3-yl)heptan-1-one], the 50% inhibitory concentration (IC50) on human HDAC1 [1] is 1.8 nM; in assay [2], 1.8 nM; on HDAC6 [4], at least 45000 nM; on human HDAC2 ([…] nM enzyme), 7.4 nM; on human HDAC8 ([…] nM enzyme), 1600 nM. The EC50 in the assay on KARN cells (Jurkat 2C4) [8] (setting [11]) worked out at 130 nM; with KARN cells (Jurkat 2C4) [8] (setting [12]) it was 1800 nM.

Regarding `CN(C)CC(=O)N[C@@H](CCCCCC(=O)c1ccon1)c1nc(Cl)c(-c2ccc(F)cc2)[nH]1` [Example 194, (S)-N-(1-(4-chloro-5-(4-fluorophenyl)-1H-imidazol-2-yl)-7-(isoxazol-3-yl)-7-oxoheptyl)-2-(dimethylamino)acetamide], the half-maximal inhibitory concentration (IC50) was determined as 0.2 nM at human HDAC1 [1]; 0.1 nM in assay [2]; 9500 nM against HDAC6 [4]; 0.69 nM on human HDAC2 ([…] nM enzyme); 19 nM on human HDAC8 ([…] nM enzyme). The EC50 with KARN cells (Jurkat 2C4) [8] (setting [11]) came out at 3.2 nM; in the assay with KARN cells (Jurkat 2C4) [8] (setting [12]), 15 nM.
